These results are taken from ChEMBL document CHEMBL5325464, “Design, synthesis and evaluation the bioactivities of novel 1,3-dimethyl-6-amino-1H-indazole derivatives as anticancer agents” (Bioorg Med Chem, 2023).

Active and inactive are the calls of the source. No cut-off for these calls is given here.

A short description of series [1]: Cytotoxicity against human YD-15 cells assessed as reduction of cell viability at 50 uM measured after 24 hrs by MTT assay. It counts as functional. (In general: Formazan colour is commonly taken as a measure of viable cells.)
The test system of series [2] is FaDu. Nature of the series: Cytotoxicity against human FaDu cells assessed as reduction of cell viability at 20 uM measured after 24 hrs by MTT assay. It counts as functional.
In series [3] the target is T1, Indoleamine 2,3-dioxygenase 1 (Homo sapiens, UniProt P14902). Nature of the series: Inhibition of human IDO1 expressed in human FaDu cells at IC50 incubated for 24 hrs by ELISA assay. It counts as cell-based. In general terms: An ELISA detects its analyte on a solid surface through an enzyme-linked reagent.
Target sequence in this assay (P14902 whole entry, looked up): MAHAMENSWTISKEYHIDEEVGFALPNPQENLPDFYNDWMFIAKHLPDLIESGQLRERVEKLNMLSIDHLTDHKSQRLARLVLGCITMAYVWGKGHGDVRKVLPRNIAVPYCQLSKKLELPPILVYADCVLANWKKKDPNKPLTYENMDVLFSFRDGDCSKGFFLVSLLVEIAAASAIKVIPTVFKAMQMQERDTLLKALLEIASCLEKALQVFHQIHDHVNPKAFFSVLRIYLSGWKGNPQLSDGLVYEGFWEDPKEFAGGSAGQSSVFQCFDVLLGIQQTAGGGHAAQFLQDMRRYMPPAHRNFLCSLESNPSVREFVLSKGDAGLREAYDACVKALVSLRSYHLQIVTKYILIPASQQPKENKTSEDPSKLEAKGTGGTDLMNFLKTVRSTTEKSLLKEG
Series [4] deals with FaDu. Nature of the series: Cytotoxicity against human FaDu cells assessed as reduction of cell viability measured after 24 hrs by MTT assay. The class given is functional, cell-based.
Another series deals with MCF7. Briefly: Cytotoxicity against human MCF7 cells assessed as reduction of cell viability at 25 uM measured after 24 hrs by MTT assay. The class given is functional.
A short description of series [5]: Cytotoxicity against human DPSC cells assessed as reduction of cell viability at 20 uM measured after 24 hrs by MTT assay. The class given is toxicity, cell-based.
In series [6] the test system is FaDu. Briefly: Downregulation of MMP9 expression in human FaDu cells at 1 to 3 uM incubated for 24 hrs by Western blot analysis. The class given is functional, cell-based. The conditions noted are these: dose 1-3 µM. On the technique in general: In western blotting, separated proteins are transferred to a membrane and probed.
Series [7] concerns the target T1, Indoleamine 2,3-dioxygenase 1. Nature of the series: Inhibition of human IDO1 expressed in human FaDu cells at 2.78 uM incubated for 24 hrs by ELISA assay relative to control. It counts as cell-based.
Target sequence in this assay (P14902 whole entry, looked up): as above
A short description of series [8]: Activation of ERK pathway in human FaDu cells assessed as effect on p38 phosphorylation upto 3 uM measured after 24 hrs by Western blotting analysis. It counts as cell-based.
For series [9], the target named is T1, Indoleamine 2,3-dioxygenase 1. Nature of the series: Inhibition of human IDO1 expressed in human FaDu cells incubated for 24 hrs by Western blotting analysis. It counts as cell-based.
Target sequence in this assay (P14902 whole entry, looked up): as above
The subject of series [10] is FaDu. Nature of the series: Inhibition of cell migration in human FaDu cells measured after 24 hrs by wound healing assay. The class given is functional, cell-based. The conditions noted are these: dose 1-3 µM.
A short description of series [11]: Activation of ERK pathway in human FaDu cells assessed as decrease in JNK phosphorylation upto 3 uM measured after 24 hrs by Western blotting analysis. It counts as cell-based. The conditions noted are these: filed as activator.
The subject of series [12] is FaDu. Briefly: Induction of apoptosis in human FaDu cells assessed as nuclear fragmentation upto 3 uM measured after 24 hrs by DAPI staining based fluorescence microscopic analysis. It counts as functional, cell-based.
Series [13] concerns FaDu. Briefly: Induction of apoptosis in human FaDu cells assessed as activation of cleaved caspase 3 level upto 3 uM measured after 24 hrs by Western blot analysis. The class given is functional, cell-based.
The subject of series [14] is FaDu. Nature of the series: Induction of apoptosis in human FaDu cells assessed as activation of PARP level upto 3 uM measured after 24 hrs by Western blot analysis. The class given is functional, cell-based.
Series [15] in a line: Activation of ERK pathway in human FaDu cells assessed as increase in ERK phosphorylation upto 3 uM measured after 24 hrs by Western blotting analysis. The conditions noted are these: filed as activator. It counts as cell-based.
The subject of series [16] is FaDu. Briefly: Induction of apoptosis in human FaDu cells assessed as nuclear condensation upto 3 uM measured after 24 hrs by DAPI staining based fluorescence microscopic analysis. It counts as functional, cell-based.
In series [17] the target is T1, Indoleamine 2,3-dioxygenase 1. Briefly: Inhibition of human recombinant IDO1 incubated for 1 hr by HPLC analysis.
Target sequence in this assay (P14902 whole entry): as the sequence (P14902 whole entry, looked up) above

For the compound `COc1ccc(CNc2ccc3c(C)nn(C)c3c2)cc1O`, the Activity in [1] came out at 99.01%; with FaDu [2] it was 7.26%; with MCF7, 95.71%; in [5], 86.87%. Further, the “IDO1 inhibition (qualitative)” value in series [3] is “Active”. The IC50 with FaDu [4] worked out at 6.19 µM.

Consider `Cc1nn(C)c2cc(NCc3ccc(Cl)cc3)ccc12`, for which the Activity in series [1] amounted to 52.82%; in the series on FaDu [2] it was 8.43%; in the series with MCF7, 101.58%; in [5], 84.13%. The “IDO1 inhibition (qualitative)” value in [3] is “Active”. In addition, in the series on FaDu [4], the concentration for half-maximal inhibition (IC50) came to 3.57 µM.

For `Cc1nn(C)c2cc(NCc3ccc(F)c(F)c3)ccc12`, the Activity in series [1] was found to be 63.3%; in the series with FaDu [2] it was 8.08%; in the series on MCF7, 100.45%; in series [5] it was 90.4%. Besides, the “IDO1 inhibition (qualitative)” value in series [3] is “Active”. In the series with FaDu [4], the IC50 came to 3.49 µM.

As for `COc1ccc(CNc2ccc3c(C)nn(C)c3c2)c(OC)c1OC`, the Activity in series [1] stood at 101.41%; in the series on FaDu [2] it was 7.8%; in the series on MCF7, 104.07%; in [5] it was 90.13%. Moreover, the “IDO1 inhibition (qualitative)” value in series [3] is “Active”. Also, the IC50 in the series on FaDu [4] is 1.87 µM.

For the compound `Cc1nn(C)c2cc(NCc3ccc(N(C)C)cc3)ccc12`, the Activity in series [1] is 26.86%; with FaDu [2], 93.5%; in the series with MCF7, 84.75%; in series [5] it was 91.6%. Moreover, the IC50 in the series on FaDu [4] was greater than 50 µM.

As for `Cc1nn(C)c2cc(NCc3ccc(Br)cc3)ccc12`, the result (in the series with FaDu [6]; in [11]; in the series on FaDu [12]; in the series on FaDu [13]; in the series with FaDu [14]; in [15]) was Active. Moreover, in the series on FaDu [16], the outcome was Active. In addition, the Activity was found to be 7.87% in [1], 8.29% in the series on FaDu [2], 102.61% in the series with MCF7 and 94.66% in [5]. The values for the inhibition (in series [7]; in [9]; in the series with FaDu [10]) were 45.7%, “Dose-Dependent Effect” and “Dose-Dependent Effect”, respectively. Besides, the outcome in series [8] was inactive. Besides, the IC50 in the series with FaDu [4] worked out at 2.78 µM.

For `Cc1nn(C)c2cc(NCc3ccncc3)ccc12`, the Activity in series [1] is 97.98%; in the series on FaDu [2], 86.72%; in the series with MCF7 it was 93.76%; in [5] it was 82.84%. Moreover, the IC50 in the series with FaDu [4] is greater than 50 µM.

Turning to `O=C(NNc1ccccc1)c1n[nH]c2cc(Br)ccc12`, the IC50 in [17] is 0.72 µM.

`COc1cc(CNc2ccc3c(C)nn(C)c3c2)cc(OC)c1OC`: the Activity in series [1] stood at 86.71%; in the series with FaDu [2], 49.4%; in the series on MCF7, 92.8%; in [5] it was 82.54%. Further, the IC50 in the series on FaDu [4] was 19.9 µM.

On to `Cc1nn(C)c2cc(NCc3ccc([N+](=O)[O-])cc3)ccc12`, for which the Activity in series [1] amounted to 94.88%; in the series on FaDu [2], 7.77%; with MCF7 it was 98.33%; in series [5], 100.99%. Also, the “IDO1 inhibition (qualitative)” value in [3] is “Active”. Also, in the series with FaDu [4], the IC50 turned out to be 11.2 µM.

Regarding `COc1ccc(CNc2ccc3c(C)nn(C)c3c2)cc1`, the Activity in series [1] was 67.1%; in the series on FaDu [2], 10.4%; in the series on MCF7 it was 102.24%; in series [5] it was 91.62%. The “IDO1 inhibition (qualitative)” value in series [3] is “Active”. In addition, the IC50 in the series on FaDu [4] came to 6.67 µM.

As for `Cc1nn(C)c2cc(NCc3ccc(O)cc3)ccc12`, the Activity in series [1] is 98.59%; with FaDu [2] it was 87.72%; with MCF7, 100.39%; in [5], 94.7%. For the same compound, the IC50 in the series on FaDu [4] was greater than 50 µM.

For the compound `COc1ccc(CNc2ccc3c(C)nn(C)c3c2)c(O)c1`, the Activity in series [1] was found to be 102.06%; with FaDu [2], 84.68%; with MCF7, 88.27%; in [5] it was 84.9%. Moreover, the IC50 with FaDu [4] is greater than 50 µM.

As a reminder, the IC50 is the concentration that gives 50% inhibition. The inhibition is the relative decrease from the control value, in per cent.
